{"source": "patent US9987256B2", "about": "“CFTR corrector for the treatment of genetic disorders affecting striated muscle” (UNIVERSITA' DEGLI STUDI DI PADOVA, priority 2012, dated 2018)", "key": {"[1]": {"molecular_target": "T1, D97G mutant of alpha-sarcoglycan (Homo sapiens, UniProt Q16586, D97G)", "T1 construct": "expressed in transfected cells; host or cells: HEK293", "T1 sequence (Q16586 24-387 D97G)": "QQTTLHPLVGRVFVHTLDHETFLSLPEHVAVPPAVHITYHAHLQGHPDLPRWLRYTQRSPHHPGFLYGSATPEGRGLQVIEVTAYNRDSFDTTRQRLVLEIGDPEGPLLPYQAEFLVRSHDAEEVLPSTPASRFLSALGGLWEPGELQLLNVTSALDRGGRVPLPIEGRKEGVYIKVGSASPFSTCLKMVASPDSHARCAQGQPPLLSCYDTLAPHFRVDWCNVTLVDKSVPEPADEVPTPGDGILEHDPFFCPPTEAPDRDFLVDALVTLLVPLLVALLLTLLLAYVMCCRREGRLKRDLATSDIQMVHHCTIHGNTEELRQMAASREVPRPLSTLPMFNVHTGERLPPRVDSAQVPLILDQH", "test": "Western blot rescue of D97G mutant of alpha-sarcoglycan in HEK293 cell model", "type": "cell-based", "settings": "FIG. 7; HEK293, 24 hours; E 10 μM, H 15 μM, I 10 μM, Q 10 μM, F 10 μM, R 5 μM, S 15 μM, T 15 μM, A 2 μM; relative to wild type", "procedure": "HEK293 cells expressing different α-SG mutants have been treated with the Compounds A, B, C, D, E, F, H, I, Q, R, S and T according to protocols developed in CF studies [Loo and Clarke 2011; Becq et al 2011, Pedemonte et al 2005; Wang et al 2006]. Concentration and time-dependent recovery of treated mutants have been evaluated by Western blotting. The proteasome inhibitor MG132, at the concentration of 10 μM, or DMSO at 1‰ concentration, have been used as positive and negative control, respectively.\nIn FIG. 7 is shown the content of α-sarcoglycan protein present in HEK cells transfected with the D97G mutant of α-SG treated for 24 hours with either Compound E 10 μM, Compound H 15 μM, Compound I 10 μM, Compound Q 10 μM, Compound F 10 μM, Compound R 5 μM, Compound S 15 μM, Compound T 15 μM, Compound A 2 μM, or DMSO at 1‰ concentration, used as negative control, are shown. Cells expressing the wild type form of α-sarcoglycan have been used for comparison. At the end of treatments, cells were lysed and total proteins resolved by SDS-PAGE. Western blotting has been performed by using α-SG specific antibody and β-actin specific antibody, used to normalize loaded proteins. The expression of α-SG in different samples has been determined by densitometric analysis of western blotting experiments and indicated as percentage of the protein present in cells expressing the wild type form of α-sarcoglycan. […] The compounds tested induce the recovery of the D97G mutant that in some cases reached the level present in HEK cells expressing the wild type protein."}, "R164H mutant of SERCA1": {"molecular_target": "T2, R164H mutant of SERCA1 (Bos taurus, UniProt Q0VCY0, R164H)", "T2 construct": "expressed in transfected cells; host or cells: HEK 293", "T2 sequence (Q0VCY0 whole entry R164H)": "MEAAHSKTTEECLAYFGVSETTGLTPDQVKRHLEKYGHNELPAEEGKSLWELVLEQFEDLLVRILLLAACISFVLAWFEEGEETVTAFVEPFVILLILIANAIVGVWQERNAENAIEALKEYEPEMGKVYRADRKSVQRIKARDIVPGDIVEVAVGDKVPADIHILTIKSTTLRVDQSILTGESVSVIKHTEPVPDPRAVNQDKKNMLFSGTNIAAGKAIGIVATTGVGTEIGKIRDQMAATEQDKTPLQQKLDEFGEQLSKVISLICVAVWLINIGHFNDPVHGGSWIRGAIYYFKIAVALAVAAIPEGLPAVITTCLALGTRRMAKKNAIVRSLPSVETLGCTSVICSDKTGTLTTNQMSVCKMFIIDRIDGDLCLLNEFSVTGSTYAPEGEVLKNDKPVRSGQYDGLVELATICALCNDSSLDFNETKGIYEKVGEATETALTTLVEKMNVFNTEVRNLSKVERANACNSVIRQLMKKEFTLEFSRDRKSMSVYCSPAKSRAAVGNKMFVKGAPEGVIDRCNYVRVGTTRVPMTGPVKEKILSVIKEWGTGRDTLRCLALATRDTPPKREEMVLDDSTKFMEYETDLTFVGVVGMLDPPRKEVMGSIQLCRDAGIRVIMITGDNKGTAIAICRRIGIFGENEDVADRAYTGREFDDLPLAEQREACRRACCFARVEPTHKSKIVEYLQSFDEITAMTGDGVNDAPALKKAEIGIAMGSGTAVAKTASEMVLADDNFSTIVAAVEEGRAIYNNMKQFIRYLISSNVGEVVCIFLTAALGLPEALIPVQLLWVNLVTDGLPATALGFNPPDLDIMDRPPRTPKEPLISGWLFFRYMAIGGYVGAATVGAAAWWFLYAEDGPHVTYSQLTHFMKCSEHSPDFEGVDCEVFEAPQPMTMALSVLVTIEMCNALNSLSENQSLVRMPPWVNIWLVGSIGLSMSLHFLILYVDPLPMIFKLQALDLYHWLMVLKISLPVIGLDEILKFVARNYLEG", "test": "Western blot rescue of R164H mutant of SERCA1 in HEK293 cells", "type": "cell-based, bovine", "settings": "HEK293, 24 hours, relative to wild type", "procedure": "In FIG. 3 are reported the results obtained with HEK 293 cells expressing the R164H mutant of SERCA1 treated for 24 hours with either Compound C 5 μM, Compound B 10 μM, Compound E 10 μM, compound F 10 μM, Compound A 2 μM, compound D 10 μM, MG132 (proteasome inhibitor) 10 μM, used as positive control or the vehicle DMSO at 1‰ concentration, used as negative control. At the end of treatments, cells were lysed and total protein resolved by SDS-PAGE. Western blotting analysis has been performed by using SERCA1 specific antibody and β-actin specific antibody, to normalize loaded proteins. In the upper panel of FIG. 3 is reported a representative Western blotting experiment. The expression of SERCA1 in different samples has been determined by densitometric analysis and indicated as percentage of SERCA 1 content present in wild type expressing cells treated with DMSO.\nIn FIG. 10 is reported the content of SERCA1 protein present in HEK 293 cells transfected with the R164H mutant of SERCA1 and treated for 24 hours with either Compound H 15 μM, Compound I 10 μM, compound Q 10 μM, Compound R 5 μM, Compound S 15 μM, Compound T 15 μM or the vehicle DMSO at 1‰ concentration, used as negative control. Cells expressing the wild type form of SERCA1 have also been used for comparison. At the end of treatments, cells were lysed and total protein resolved by SDS-PAGE. Western blotting analysis has been performed by using SERCA1 specific antibody and β-actin specific antibody, to normalize loaded proteins. The expression of SERCA1 in different samples has been determined by densitometric analysis and indicated as percentage of SERCA 1 content present in wild type expressing cells. The graph of FIG. 10 reports the average values (+/− standard error) of at least three independent experiments."}, "[2]": {"settings": "FIG. 10, H 15 μM, I 10 μM, Q 10 μM, R 5 μM, S 15 μM, T 15 μM"}, "[3]": {"settings": "FIG. 3, C 5 μM, B 10 μM, E 10 μM, F 10 μM, A 2 μM, D 10 μM"}}, "data": [{"smiles": "Cc1cc(C)c2c(C)cc(Nc3ccccc3)nc2c1", "note": "[Compound H, 4,5,7-trimethyl-N-phenylquinolin-2-amine]", "values": [{"measurement": "alpha-sarcoglycan protein level (western blot, densitometry), rescue of D97G mutant", "setting": "[1]", "value": "promote the rescue"}, {"measurement": "SERCA1 protein level (western blot, densitometry), rescue of R164H mutant", "setting": "R164H mutant of SERCA1; [2]", "value": "promote the rescue"}]}, {"smiles": "COc1ccc2nc(Nc3nc(=O)c(C)c(C)[nH]3)nc(C)c2c1", "note": "[Compound T, 2-(6-methoxy-4-methylquinazolin-2-ylamino)-5,6-dimethylpyrimidin-4(1H)-one]", "values": [{"measurement": "alpha-sarcoglycan protein level (western blot, densitometry), rescue of D97G mutant", "setting": "[1]", "value": "promote the rescue"}, {"measurement": "SERCA1 protein level (western blot, densitometry), rescue of R164H mutant", "setting": "R164H mutant of SERCA1; [2]", "value": "promote the rescue"}]}, {"smiles": "Cc1cc(Nc2ccc(Br)cc2)nc2ccccc12", "note": "[Compound I, N-(4-bromophenyl)-4-methylquinolin-2-amine]", "values": [{"measurement": "alpha-sarcoglycan protein level (western blot, densitometry), rescue of D97G mutant", "setting": "[1]", "value": "promote the rescue"}, {"measurement": "SERCA1 protein level (western blot, densitometry), rescue of R164H mutant", "setting": "R164H mutant of SERCA1; [2]", "value": "promote the rescue"}]}, {"smiles": "COc1ccccc1Nc1nc(-c2sc(NC(=O)c3ccccc3)nc2C)cs1", "note": "[Compound R, N-(2-(2-methoxyphenylamino)-4′-methyl-4,5′-bithiazol-2′-yl)-benzamide]", "values": [{"measurement": "alpha-sarcoglycan protein level (western blot, densitometry), rescue of D97G mutant", "setting": "[1]", "value": "promote the rescue"}, {"measurement": "SERCA1 protein level (western blot, densitometry), rescue of R164H mutant", "setting": "R164H mutant of SERCA1; [2]", "value": "promote the rescue"}]}, {"smiles": "C=Cc1ccc(-c2csc(Nc3ccccc3)n2)cc1", "note": "[Compound S, N-phenyl-4-(4-vinylphenyl)thiazol-2-amine]", "values": [{"measurement": "alpha-sarcoglycan protein level (western blot, densitometry), rescue of D97G mutant", "setting": "[1]", "value": "promote the rescue"}, {"measurement": "SERCA1 protein level (western blot, densitometry), rescue of R164H mutant", "setting": "R164H mutant of SERCA1; [2]", "value": "promote the rescue"}]}, {"smiles": "CC(=O)c1cccc(Nc2nc(-c3sc(NC(=O)c4ccccc4)nc3C)cs2)c1", "note": "[Compound Q, N-(2-(3-acetylphenylamino)-4′-methyl-4,5′-bithiazol-2′-yl)-benzamide]", "values": [{"measurement": "alpha-sarcoglycan protein level (western blot, densitometry), rescue of D97G mutant", "setting": "[1]", "value": "promote the rescue"}, {"measurement": "SERCA1 protein level (western blot, densitometry), rescue of R164H mutant", "setting": "R164H mutant of SERCA1; [2]", "value": "promote the rescue"}]}, {"smiles": "O=S(=O)(c1ccc(Cl)cc1)N1CCN(c2ccnc3cc(Cl)ccc23)CC1", "note": "[Compound F, 7-chloro-4-(4-(4-chlorophenylsulfonyl)piperazin-1-yl)quinoline]", "values": [{"measurement": "alpha-sarcoglycan protein level (western blot, densitometry), rescue of D97G mutant", "setting": "[1]", "value": "promote the rescue"}, {"measurement": "SERCA1 protein level (western blot, densitometry), rescue of R164H mutant", "setting": "R164H mutant of SERCA1; [3]", "value": "promote the rescue"}]}, {"smiles": "COc1ccc(Cl)cc1Nc1nc(-c2sc(NC(=O)c3ccccc3)nc2C)cs1", "note": "[Compound E, N-[2-(5-Chloro-2-methoxy-phenylamino)-4′-methyl-[4,5′]bithiazolyl-2′-yl]-benzamide]", "values": [{"measurement": "alpha-sarcoglycan protein level (western blot, densitometry), rescue of D97G mutant", "setting": "[1]", "value": "promote the rescue"}, {"measurement": "SERCA1 protein level (western blot, densitometry), rescue of R164H mutant", "setting": "R164H mutant of SERCA1; [3]", "value": "promote the rescue"}]}, {"smiles": "COc1ccc(Cl)cc1Nc1nc(-c2sc(NC(=O)C(C)(C)C)nc2C)cs1", "note": "[Compound A, N-(2-(5-chloro-2-methoxyphenylamino)-4′-methyl-4,5′-bithiazol-2′-yl)pivalamide]", "values": [{"measurement": "alpha-sarcoglycan protein level (western blot, densitometry), rescue of D97G mutant", "setting": "[1]", "value": "promote the rescue"}, {"measurement": "SERCA1 protein level (western blot, densitometry), rescue of R164H mutant", "setting": "R164H mutant of SERCA1; [3]", "value": "promote the rescue"}]}]}
